The values that follow come from patent US20080004247A1, “Combinations of Statins with Bronchodilators” (ASTRAZENECA AB, priority 2004, published 2008).

The structures appear in SMILES notation.

A short description of this assay: Meta-analysis of 2 one-year clinical trials: incidence of severe COPD exacerbations with and without concomitant statins. The format is in vivo, patients. Particulars: severe exacerbations = need for a treatment course of oral corticosteroids. As to the method:
A meta-analysis was performed from 2 one-year clinical trials in moderate to severe COPD. Patients treated with budesonide (Pulmicort®), formoterol (Oxis®), formoterol+budesonide (Symbicort®) or Placebo were analysed with and without statins as concomitant medication. The incidence of severe exacerbations, defined as need for a treatment course of oral corticosteroids, was determined.

[1] abbreviates: PLUS STATINS as concomitant medication.

In the case of `CCCC1O[C@@H]2C[C@H]3[C@@H]4CCC5=CC(=O)C=C[C@]5(C)[C@H]4[C@@H](O)C[C@]3(C)[C@]2(C(=O)CO)O1` (stereo partly shown) [Budesonide, budesonide], the “Incidence of exacerbations per year” value runs as follows: (EXCLUDING STATINS) 0.9 (n = 379) per year; under setting [1], 0.7 (n = 8) per year.
For `COc1ccc(CC(C)NCC(O)c2ccc(O)c(NC=O)c2)cc1` (stereo not shown) [Formoterol, formoterol], the “Incidence of exacerbations per year” value is 1.0 (n = 388) per year (EXCLUDING STATINS) and 0.4 (n = 9) per year under setting [1].
